The text below walks through data of US20070135499A1 (Aerie Pharmaceuticals, Inc., priority 2005, published 2007).

The target in the test is T1, hGRK-2 (Homo sapiens, UniProt P25098).
T1 sequence (P25098 1-689): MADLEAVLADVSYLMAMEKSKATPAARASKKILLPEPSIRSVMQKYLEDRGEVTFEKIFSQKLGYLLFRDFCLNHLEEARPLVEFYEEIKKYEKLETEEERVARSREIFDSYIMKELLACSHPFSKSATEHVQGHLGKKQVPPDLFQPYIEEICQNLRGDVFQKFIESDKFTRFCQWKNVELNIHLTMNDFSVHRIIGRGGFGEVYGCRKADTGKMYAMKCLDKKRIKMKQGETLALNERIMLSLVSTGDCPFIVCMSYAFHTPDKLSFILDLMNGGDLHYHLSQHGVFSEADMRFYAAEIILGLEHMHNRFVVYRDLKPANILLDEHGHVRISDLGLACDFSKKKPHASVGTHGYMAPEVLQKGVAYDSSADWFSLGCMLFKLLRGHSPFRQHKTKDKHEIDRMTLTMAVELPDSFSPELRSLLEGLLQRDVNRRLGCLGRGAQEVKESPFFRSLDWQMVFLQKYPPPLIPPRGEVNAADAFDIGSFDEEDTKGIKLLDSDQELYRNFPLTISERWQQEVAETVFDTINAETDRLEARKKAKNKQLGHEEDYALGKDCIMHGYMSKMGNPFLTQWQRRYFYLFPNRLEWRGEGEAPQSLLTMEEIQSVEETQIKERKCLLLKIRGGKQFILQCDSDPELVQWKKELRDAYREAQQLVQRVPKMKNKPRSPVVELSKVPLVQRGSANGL
In words: luciferase-based (Kinase-Glo) biochemical kinase inhibition assay, hGRK-2. The settings on record: luciferase assay, casein substrate, 10 μM ATP; read-out: GRK-2 inhibition, Ki class. The procedure:
The inhibition of G-protein-coupled receptor kinases including hGRK-2 was determined for the hydrazide compounds using a biochemical assay. The inhibition of GRK-3, GRK-5 and GRK-6 was also determined using the same assay for some of the hydrazide derivatives.
The protein kinase inhibition was determined using a biochemical assay utilizing the light emission of a luciferase reaction. The luciferase-based assay operates on the following reaction principles: [drawing 10]
An inhibitor of GRK-2 will increase in the amount of ATP in solution, as shown. Thus, an inhibitor of GRK-2 will drive the luciferase reaction to the right, resulting in more light emitted. The amount of light emitted is proportional to the inhibition resulting from the GRK-2 inhibitor. The luciferase-based assay was also used to test some of the hydrazides for the inhibition properties towards other kinases.
The test procedure was as follows:
• 50 mM HEPES, pH 7.5 • 10 mM MgCl2 • 100 μM activated sodium orthovanadate • 0.01% CHAPS • 0.1% BSA • 1 mM DTT (added fresh daily) 10× Assay Buffer Stock: • 500 mM HEPES, pH 7.5 • 100 mM MgCl2 • 1 mM activated sodium orthovanadate • 0.1% CHAPS • 1% BSA (leave out for 10× compound dilution buffer) Final Assay Conditions: • 50 μM test compound • 20 μM casein • 10 μM ATP • 50 nM hGRK2 • 4.5% DMSO • 90-120 minute incubation
Stopped by addition of 30 μl 3×-diluted Kinase-Glo reagent containing 0.01% trypan blue. Counted on FUSION plate reader.
Compound Dilution and Transfer
Prepare sufficient buffer containing 40% DMSO to add 20 μl/well to the number of plates being assayed. This buffer should not contain BSA because it will precipitate with addition of 40% DMSO. (EXAMPLE: To make 3000 ml compound dilution buffer: 1200 ml DMSO, 180 ml 10× compound dilution buffer, 1615 ml ultrapure water, 3 ml 1M DTT.).
Using Multidrop, add 20 μl of compound dilution buffer to all wells of the 384-well daughter plate (add 1 μl DMSO to control wells). This will result in a daughter plate which contains 21 μl of ˜500 μM test compound.
Using the PlateTrak, transfer 5 μl of the test compounds to a 384-well, non-binding, white microtiter plate.
Prepare sufficient volume of buffer (with BSA and 1 mM DTT) containing 125 nM GRK2 and 25 μM ATP. (Example: To 219 ml of buffer was added 550 μl 10 mM ATP and 350 μl 79 μM GRK2).
Using Multidrop, add 20 μl of GRK2/ATP mixture to all wells of the microtiter plate.
Prepare sufficient volume of buffer (with BSA and 1 mM DTT) containing 40 μM casein. (EXAMPLE: To 211 ml buffer add 8.8 ml 1 mM casein)
Using Multidrop, add 25 μl to columns 1 through 23 of the microtiter plate. Add 25 μl of complete buffer to column 24 (blanks).
Mix reaction gently by tapping (Multidrop addition of casein does a decent job of mixing), stack plates and incubate at room temperature for between 90 and 120 minutes. Assay progression can be tracked in a separate plate if desired. Target 20-30% ATP consumption. Try to avoid exceeding 40% consumption as kinetics might become non-linear due to substrate (ATP) depletion.
Addition of Kinase-Glo Reagents
The Kinase-Glo reagent can be diluted 3-fold with no loss of data quality in this assay. Additionally, since the library contains many colored compounds which will quench the light emitted from the well resulting in a false negative (kinase inhibitors result in less ATP consumption thus more light emitted), the entire reaction is subject to intentional quench to override this effect. This intentional quench is accomplished by the addition of 0.01% trypan blue to the Kinase-Glo reagents. (EXAMPLE: 100 ml 1× Kinase-Glo reagents (prepared according to product insert), 200 ml assay buffer, 7.5 ml 0.4% trypan blue.
Using Multidrop, add 30 μl to all wells of the assay plate.
Count on FUSION plate reader in luminescence mode.
Background: In Kinase-Glo more light means more ATP remaining.
In the case of `Cc1ccc(Oc2cccc(NCC(=O)N/N=C/c3c(Cl)cncc3Cl)c2)cc1` [Example 35, (3-p-Tolyloxy-phenylamino)-acetic acid [1-(3,5-dichloro-pyridin-4-yl)-meth-(E)-ylidene]-hydrazide], the Ki – broadly, the equilibrium dissociation constant of an inhibitor or competing ligand from its target – lay within 1 to 10 µM.
To `O=C(CNc1ccc(Br)cc1)N/N=C/c1ccncc1` [Example 36, (4-Bromo-phenylamino)-acetic acid [1-pyridin-4-yl-meth-(E)-ylidene]-hydrazide] belongs 1 to 10 µM; to `O=C(COc1cccc(Cl)c1)N/N=C/c1ccncc1` [Example 38, (3-Chloro-phenoxy)-acetic acid [1-pyridin-4-yl-meth-(E)-ylidene]-hydrazide], over 10 µM.
`N#Cc1cccc(NCC(=O)N/N=C/c2ccncc2)c1` [Example 39, (3-Cyano-phenylamino)-acetic acid [1-pyridin-4-yl-meth-(E)-ylidene]-hydrazide]: the Ki was in the range of 1 to 10 µM.
To `O=C(CNc1ccccc1)N/N=C/c1ccncc1` [Example 42, Phenylamino-acetic acid [1-pyridin-4-yl-meth-(E)-ylidene]-hydrazide] belongs 0.1 to 1 µM; to `O=C(CNc1cccc(Br)c1)N/N=C/c1ccncc1` [Example 44, (3-Bromo-phenylamino)-acetic acid [1-pyridin-4-yl-meth-(E)-ylidene]-hydrazide], 0.1 to 1 µM; to `Cc1cccc(NCC(=O)N/N=C/c2ccncc2)c1` [Example 46, (3-Methyl-phenylamino)-acetic acid [1-pyridin-4-yl-meth-(E)-ylidene]-hydrazide], 1 to 10 µM.
To `O=C(CNc1cccc(I)c1)N/N=C/c1ccncc1` [Example 49, (3-Iodo-phenylamino)-acetic acid [1-pyridin-4-yl-meth-(E)-ylidene]-hydrazide] belongs 0.1 to 1 µM; to `O=C(CNc1cccc(C(F)(F)F)c1)N/N=C/c1ccncc1` [Example 50, (3-Trifluoromethyl-phenylamino)-acetic acid [1-pyridin-4-yl-meth-(E)-ylidene]-hydrazide], 1 to 10 µM.
With `O=C(CNc1ccc(F)cc1)N/N=C/c1ccncc1` [Example 53, (4-fluoro-phenylamino)-acetic acid [1-pyridin-4-yl-meth-(E)-ylidene]-hydrazide], the inhibitory constant (Ki) was 1 to 10 µM.
For `O=C(CNc1ccc(C(F)(F)F)cc1)N/N=C/c1ccncc1` [Example 54, (4-Trifluoromethyl-phenylamino)-acetic acid [1-pyridin-4-yl-meth-(E)-ylidene]-hydrazide] the value was over 10 µM.
As for `Cc1ccc(NCC(=O)N/N=C/c2ccncc2)cc1` [Example 56, (4-Methyl-phenylamino)-acetic acid [1-pyridin-4-yl-meth-(E)-ylidene]-hydrazide], the Ki was over 10 µM.
To `O=C(CNc1ccc(Cl)cc1)N/N=C/c1ccncc1` [Example 57, (4-Chloro-phenylamino)-acetic acid [1-pyridin-4-yl-meth-(E)-ylidene]-hydrazide] belongs 1 to 10 µM.
Turning to `CC(C)Oc1cccc(NCC(=O)N/N=C/c2ccncc2)c1` [Example 58, (3-Isopropoxy-phenylamino)-acetic acid [1-pyridin-4-yl-meth-(E)-ylidene]-hydrazide], the Ki fell in the range of 1 to 10 µM.
For `CCc1cccc(NCC(=O)N/N=C/c2ccncc2)c1` [Example 59, (3-Ethyl-phenylamino)-acetic acid [1-pyridin-4-yl-meth-(E)-ylidene]-hydrazide] the value was 1 to 10 µM.
Regarding `N#Cc1ccc(NCC(=O)N/N=C/c2ccncc2)cc1` [Example 60], the Ki fell in the range of 1 to 10 µM.
To `CC(C)c1cccc(NCC(=O)N/N=C/c2ccncc2)c1` [Example 61, (3-Isopropyl-phenylamino)-acetic acid [1-pyridin-4-yl-meth-(E)-ylidene]-hydrazide] belongs over 10 µM.
For `CS(=O)(=O)Nc1cccc(NCC(=O)N/N=C/c2ccncc2)c1` [Example 64] the value was over 10 µM; for `Cc1ccccc1NCC(=O)N/N=C/c1ccncc1` [Example 65, o-Tolylamino-acetic acid [1-pyridin-4-yl-meth-(E)-ylidene]-hydrazide], over 10 µM; for `CCOc1ccccc1NCC(=O)N/N=C/c1ccncc1` [Example 66, (2-Ethoxy-phenylamino)-acetic acid [1-pyridin-4-yl-meth-(E)-ylidene]-hydrazide], over 10 µM.
For `COc1ccccc1NCC(=O)N/N=C/c1ccncc1` [Example 67, (2-Methoxy-phenylamino)-acetic acid [1-pyridin-4-yl-meth-(E)-ylidene]-hydrazide] the value was over 10 µM.
`CCc1ccccc1NCC(=O)N/N=C/c1ccncc1` [Example 68, (2-Ethyl-phenylamino)-acetic acid [1-pyridin-4-yl-meth-(E)-ylidene]-hydrazide]: the Ki is over 10 µM.
For `CC(C)c1ccccc1NCC(=O)N/N=C/c1ccncc1` [Example 69, (2-Isopropyl-phenylamino)-acetic acid [1-pyridin-4-yl-meth-(E)-ylidene]-hydrazide] the value was over 10 µM; for `O=C(CNc1ccccc1Cc1ccccc1)N/N=C/c1ccncc1` [Example 70, (2-Benzyl-phenylamino)-acetic acid [1-pyridin-4-yl-meth-(E)-ylidene]-hydrazide], 1 to 10 µM.
For `O=C(CNc1ccc(I)cc1)N/N=C/c1ccncc1` [Example 71, (4-Iodo-phenylamino)-acetic acid [1-pyridin-4-yl-meth-(E)-ylidene]-hydrazide] the value was over 10 µM; for `CC(=O)Nc1cccc(NCC(=O)N/N=C/c2ccncc2)c1` [Example 72, N-(3-{[1-Pyridin-4-yl-meth-(E)-ylidene-hydrazinocarbonylmethyl]-amino}-phenyl)-acetamide], over 10 µM.
To `CS(=O)(=O)c1cccc(NCC(=O)N/N=C/c2ccncc2)c1` [Example 73, (3-Methanesulfonyl-phenylamino)-acetic acid [1-pyridin-4-yl-meth-(E)-ylidene]-hydrazide] belongs 1 to 10 µM.
For the compound `O=C(CNc1ccccc1N1CCCCC1)N/N=C/c1ccncc1` [Example 74, (2-Piperidin-1-yl-phenylamino)-acetic acid [1-pyridin-4-yl-meth-(E)-ylidene]-hydrazide], the Ki was over 10 µM.
To `NC(=O)c1ccc(NCC(=O)N/N=C/c2ccncc2)cc1` [Example 75, 4-{[1-Pyridin-4-yl-meth-(E)-ylidene-hydrazinocarbonylmethyl]-amino}-benzamide] belongs over 10 µM.
